According to patent publication US20230270704A1, “AMINOACIDS FOR TREATMENT OF NEUROLOGICAL DISORDERS” (ScandiBio Therapeutics AB, priority 2020, published 2023):

Tests used:
[1] = tested on: 8-OHdG; experiment: Alzheimer's disease study in HFD + icv STZ rats, immunohistochemical examination of brain tissues; format: in vivo, Sprague-Dawley rats; conditions: for 8 OHdG expression in immunohistochemical staining: HFD + STZ rats, grade in words; for 8-OHdG (IHC): HFD 5 weeks + STZ 3 mg/kg icv, substances once daily by oral gavage, score
Method: (§1) 12 weeks old female Sprague-Dawley rats (weighing 320-380 g) were kept at a controlled temperature of 22±2° C. and a controlled humidity of 50±5% on a 12-hour light/dark cycle. Food and water were available ad libitum. The animal experiments are performed at Medical Experimental Research Center, Ataturk University, Erzurum, Turkey. All experiments for the treatment of the animals were approved by the Ethics Committee of Atatürk University, and were conducted following the National Institutes of Health Guide for Care and Use of Laboratory Animals.
(§2) After acclimation to laboratory conditions for one (1) week, rats were randomly divided into two dietary regimens receiving either a Chow diet (CD) or a high-fat diet (HFD. The animals of Group 1 (n=4) were fed with only regular CD for five (5) weeks. The animals of Group 2 (n=4) were fed with CD and treated with STZ. The remaining animals (n=4) were fed with HFD for 3 weeks and sacrificed to verify the model development (Group 3). Groups 4-13 were fed with HFD for 5 weeks. After 3 weeks, the animals in Groups 5-13 were treated with STZ and administered with individual or combined substances. The animals in Group 4 were injected (icy) with a control substance (saline) after 3 weeks.
(§3) Before surgical procedures, the rats were anesthetized by intraperitoneal administration of ketamine-xylazine (50 mg/kg ketamine and 5 mg/kg xylazine) and placed individually in the stereotaxic instrument (Stoelting, Ill., USA). Stereotaxic coordinates for injection were 0.8 mm posterior to the bregma, 1.5 mm lateral to the sagittal suture and 3.6 mm below the brain surface (Pellegrino et al. 1979). Then, 10 microliters of STZ (3 mg/kg, Sigma-Aldrich, Darmstadt, Germany) were injected over 3 min with a Hamilton micro-syringe into the bilateral ventricle. The injection needles were left in place for an additional 2 min to allow diffusion.
(§4) For carrying out the treatment experiments, the HFD rats were randomly separated into nine (9) subgroups of four (4) animals (Groups 5-13).
(§5) The body weight of the rats was recorded each week. After 5 weeks, all animals were anesthetized with isoflurane and sacrificed. Blood samples were collected from the abdominal aorta and centrifuged at 8000 rpm for 15 min at 4° C. The plasma was separated and stored at −80° C. until further analysis. Other internal organs, including the heart, adipose tissues, liver, kidney, brain, muscle, intestine (duodenum, ileum, jejunum), pancreas, colon and stomach were immediately removed and then snap-frozen in liquid nitrogen and stored at −80° C.
Tissue sections taken on adhesive (poly-L-Lysin) slides for immunoperoxidase examination were deparaffinized and […]. After washing the tissues with suppressed endogenous peroxidase activity in 3% H2O2 were boiled in antigen retrieval solution. In order to prevent nonspecific background staining in the sections, protein block compatible with all primary and secondary antibodies was dropped and incubated for 5 minutes. 8-OHdG (Cat no: sc-66036 dilution ratio: 1/100 US) was used as the primary antibody for brain tissues.

[2] = tested on: Caspase 3; experiment: Alzheimer's disease study in HFD + icv STZ rats, immunofluorescence examination of brain tissues (FITC); format: in vivo, Sprague-Dawley rats; conditions: for Caspase-3 expression in immunofluorescence staining: HFD + STZ rats, grade in words; for Caspase 3 (IFA FITC): HFD 5 weeks + STZ 3 mg/kg icv, substances once daily by oral gavage, score
Method: as §1, §2, §3, §4, §5
(§6) Tissue sections taken on adhesive (poly-L-Lysin) slides for immunoperoxidase examination were deparaffinized and […]. After washing the tissues with suppressed endogenous peroxidase activity in 3% H2O2 were boiled in antigen retrieval solution. In order to prevent nonspecific background staining in the sections, protein block compatible with all primary and secondary antibodies was dropped and incubated for 5 minutes. For brain tissues, primary antibody Caspase 3 (Cat No:sc-56053 Dilution Ratio:1/100 US) was dropped and incubated for 1 hour at 37° C. After washing, secondary FITC (Cat No: ab6717 Dilution Ratio:1/500 UK) was dropped and incubated at 37° C. for 30 minutes. The other primary antibody H2A.X (Cat No:I 0856-1 Dilution Ratio:1/100 US) was dropped and incubated at 37° C. for 1 hour. After washing, secondary Texas Red (Cat No: se-3917 Dilution Ratio:1/100 US) was dropped and incubated at 37° C. for 30 minutes. DAPI (Cat No:D-1306 Dilution Ratio:1/200 US) was dripped onto the washed tissues and incubated in the dark for 5 minutes, then glycerin was sealed.

[3] = tested on: brain tissues; experiment: Alzheimer's disease study in HFD + icv STZ rats, histopathology (HE) of brain tissues; format: in vivo, Sprague-Dawley rats
Method: as §1, §2, §3, §4, §5
Tissue samples obtained as a result of the experimental procedure were fixed in 10% buffered formalin solution for 48 hours. Following the routine tissue procedure, the tissues were embedded in paraffin blocks and 4 μm thick sections were taken from each block. Preparations prepared for histopathological examination were stained with hematoxylin-eosin (HE) and examined with a light microscope (Olympus BX51, Germany).

[4] = tested on: hepatic steatosis; experiment: short-term dietary supplementation with serine in obese subjects with hepatic steatosis; format: in vivo, human
Method: To test the model-based predictions, the present inventors assessed the effect of short-term dietary supplementation with serine on fatty liver and fasting levels of plasma markers of liver functions in six obese subjects (BMI 32.5±2.70 kg/m2) with hepatic steatosis. Each patient received one oral dose of ˜20 g of L-serine (200 mg/kg) per day for 14 days. The supplementation was well-tolerated by all subjects.

[5] = tested on: H2A.X; experiment: Alzheimer's disease study in HFD + icv STZ rats, immunofluorescence examination of brain tissues (Texas Red); format: in vivo, Sprague-Dawley rats; conditions: for H2A.X expression in immunofluorescence staining: HFD + STZ rats, grade in words; for H2A.X (IFA Texas Red): HFD 5 weeks + STZ 3 mg/kg icv, substances once daily by oral gavage, score
Method: as §1, §2, §3, §4, §5, §6

[6] = fasting plasma marker of liver function, after 14 days of ~20 g/day oral L-serine
[7] = brain tissues, HFD 5 weeks + STZ 3 mg/kg icv, substances once daily by oral gavage, score

| Compound | 8 OHdG expression in immunohistochemical staining [1] | Caspase-3 expression in immunofluorescence staining [2] | degeneration in neurons ([3]; HFD + STZ rats, grade in words) | hyperemia in brain tissues ([3]; HFD + STZ rats, grade in words) | necrosis in neurons ([3]; HFD + STZ rats, grade in words) | liver fat after supplementation ([4]; after 14 days of ~20 g/day oral L-serine, decreased significantly from 26.8±6.0% before) | ALP level [4, 6] | ALT level [4, 6] | AST level [4, 6] | tolerability of the supplementation ([4]; six obese subjects, one oral dose of ~20 g L-serine (200 mg/kg) per day for 14 days) | H2A.X expression in immunofluorescence staining [5] | 8-OHdG (IHC) [1] | Caspase 3 (IFA FITC) [2] | Hyperemia [3, 7] | degeneration in neurons [3, 7] | necrosis in neurons [3, 7] | H2A.X (IFA Texas Red) [5] |
| --- | --- | --- | --- | --- | --- | --- | --- | --- | --- | --- | --- | --- | --- | --- | --- | --- | --- |
| N[C@@H](CO)C(=O)O [Group 6, serine] | moderate | moderate | moderate | Moderate | mild | 20.4±7.0% | significantly decreased | significantly decreased | significantly decreased | well-tolerated | moderate |  |  |  |  |  |  |
| NC(CO)C(=O)O (centres unmarked) [Group 6] |  |  |  |  |  |  |  |  |  |  |  | +++ (moderate (+++)) | +++ (moderate (+++)) | +++ (moderate (+++)) | +++ (moderate (+++)) | ++ (mild (++)) | +++ (moderate (+++)) |
| CC(=O)N[C@@H](CS)C(=O)O [Group 7, N-acetyl-L-cysteine, reference compound] | moderate | moderate | severe | Severe | moderate |  |  |  |  |  | moderate |  |  |  |  |  |  |
| CC(=O)NC(CS)C(=O)O (centres unmarked) [Group 7] |  |  |  |  |  |  |  |  |  |  |  | +++ (moderate (+++)) | +++ (moderate (+++)) | ++++ (severe (++++)) | ++++ (severe (++++)) | +++ (moderate (+++)) | +++ (moderate (+++)) |
| C[N+](C)(C)C[C@H](O)CC(=O)[O-].O=C(O)C(O)C(O)C(=O)O [Group 8, L-carnitine tartrate, reference compound] | moderate | moderate | moderate | Moderate | mild |  |  |  |  |  | moderate |  |  |  |  |  |  |
| C[N+](C)(C)CC(O)CC(=O)O.C[N+](C)(C)CC(O)CC(=O)O.O=C([O-])C(O)C(O)C(=O)[O-] (centres unmarked) [Group 8] |  |  |  |  |  |  |  |  |  |  |  | +++ (moderate (+++)) | +++ (moderate (+++)) | +++ (moderate (+++)) | +++ (moderate (+++)) | ++ (mild (++)) | +++ (moderate (+++)) |
| NC(=O)c1ccc[n+]([C@@H]2O[C@H](CO)[C@@H](O)[C@H]2O)c1.[Cl-] [Group 9, nicotinamide riboside chloride] | moderate | moderate | moderate | Moderate | mild |  |  |  |  |  | moderate |  |  |  |  |  |  |
| NC(=O)c1ccc[n+](C2OC(CO)C(O)C2O)c1.[Cl-] (centres unmarked) [Group 9] |  |  |  |  |  |  |  |  |  |  |  | +++ (moderate (+++)) | +++ (moderate (+++)) | +++ (moderate (+++)) | +++ (moderate (+++)) | ++ (mild (++)) | +++ (moderate (+++)) |
